Measured values published in patent publication US11510993B2, “Antibody drug conjugate for anti-inflammatory applications” (Merck Sharp & Dohme Corp., priority 2015, dated 2022).

Assays:
[1] = Solubility of drug-linkers in 20% MeCN/H2O; format: physicochemical; conditions: tested at a concentration of 10 mg/mL
Description: The solubility of exemplary drug-linker conjugates in aqueous solutions was evaluated. Linkers utilized in drug conjugates may have aqueous solubility to enable conjugation in aqueous media amenable to protein solubilization. Furthermore, linkers with aqueous solubility are considered hydrophilic, and may confer to the drug conjugate a reduced propensity to aggregate relative to standard hydrophobic linkers in the literature. The following exemplary drug-linkers were tested in an aqueous solution comprising 20% acetonitrile (MeCN/H2O) for solubility at a concentration of 10 mg/mL.

[2] = In vitro stability of drug-linkers in human whole blood (parent and released dexamethasone, LC-MS/MS); conditions: 37° C.
Description: General Experimental Procedure Human Blood Incubation Human blood was collected the morning of the experiment from at least 3 individuals using K2EDTA as the anticoagulant. An equal volume from each individual was combined for use in the experiment. The experiment started no more than 2 hours after the blood collection. All drug-linker conjugates were solubilized in DMSO to form each 10 mM stock solution. Dosing solution for each linker was prepared by serial dilution of each stock solution using 1:3 acetonitrile:water. All solutions were kept on ice during the experiment.
Human blood was pre-warmed in a 37° C. water bath in an appropriate volume to collect samples over a time course from 0 through 6 hours. Incubating blood was mixed well just prior to sampling to give a homogenous mixture. Aliquots of blood were removed at appropriate time points, added to cold stopping solution, which was methanol containing an appropriate internal standard, and mixed rigorously. The samples were centrifuged at 4000 RPM for 10 minutes after which equal volumes of the supernatant fractions were diluted with cold deionized water. The samples were then ready for analysis.
(§1) A Thermo LX-2 ultra-performance liquid chromatography system coupled with a Sciex API5000 triple quadrupole mass spectrometer was used for the analysis. The payload and drug-linkers were retained and separated by a C18 column and detected by the mass spectrometer. […] Samples were kept in cold stack set at 5° C.

[3] = In vitro stability of drug-linkers in rat liver lysosomal lysate (parent and released dexamethasone, LC-MS/MS)
Description: Rat Liver lysosomes were available commercially with a pool of 6 animals. All linker compounds were solubilized in DMSO to form each 10 mM stock solution. Dosing solution for each linker was prepared by serial dilution of each stock solution using 1:3 acetonitrile: water. All solutions were kept on ice during the experiment.
Rat lysosomes were pre-warmed in a 37° C. water bath in an appropriate volume to collect samples over a time course from 0 minutes through 6 hours. Incubating lysosomes were mixed well just prior to sampling to give a homogenous mixture. Aliquots of lysosomes were removed at appropriate time points, added to cold stopping solution, which was methanol containing an appropriate internal standard, and mixed rigorously. The samples were centrifuged at 4000 RPM for 10 minutes after which equal volumes of supernatant were diluted with cold deionized water. The samples were ready for analysis.
as §1

With `C[C@@H]1C[C@H]2[C@@H]3CCC4=CC(=O)C=C[C@]4(C)[C@@]3(F)[C@@H](O)C[C@]2(C)[C@@]1(O)C(=O)COP(=O)(O)Oc1ccc(NC(=O)COC2C#CCCCCC2)cc1` (stereo partly drawn) [Drug Linker 5-3, 4-(2-(cyclooct-2-yn-1-yloxy)acetamido)phenyl (2-((8S,9R,10S,11S,13S,14S,16R,17R)-9-fluoro-11,17-dihydroxy-10,13,16-trimethyl-3-oxo-6,7,8,9,10,11,12,13,14,15,16,17-dodecahydro-3H-cyclopenta[a]phenanthren-17-yl)-2-oxoethyl) hydrogen phosphate] the “Measured Solubility in 20% MeCN/H2O” value [1] was >10000 µg/mL, the “Calculated Conc. for each compound in human whole blood” value ([2]; 0 m) was 1299 nM and the “Calculated Conc. for each compound in human whole blood” value ([2]; 5 m) was 1251 nM. For the same molecule, the “Calculated Conc. for each compound in human whole blood” value ([2]; 15 m) was 1276 nM, the “Calculated Conc. for each compound in human whole blood” value ([2]; 30 m) was 1111 nM and the “Calculated Conc. for each compound in human whole blood” value ([2]; 1 hr) was 937 nM. The “Calculated Conc. for each compound in human whole blood” value ([2]; 2 hr) was 1480 nM, the “Calculated Conc. for each compound in rat lysomal lysate” value ([3]; 0 m, 37° C.) was 1394.08 nM and the “Calculated Conc. for each compound in rat lysomal lysate” value ([3]; 5 m, 37° C.) was 1295.86 nM. For the same molecule, the “Calculated Conc. for each compound in rat lysomal lysate” value ([3]; 10 m, 37° C.) was 1278.4 nM, the “Calculated Conc. for each compound in rat lysomal lysate” value ([3]; 15 m, 37° C.) was 1407.73 nM and the “Calculated Conc. for each compound in rat lysomal lysate” value ([3]; 30 m, 37° C.) was 1175.39 nM. For the same molecule, the “Calculated Conc. for each compound in rat lysomal lysate” value ([3]; 1 hr, 37° C.) was 970.65 nM, the “Calculated Conc. for each compound in rat lysomal lysate” value ([3]; 2 hr, 37° C.) was 743.45 nM and the “Calculated Conc. for each compound in rat lysomal lysate” value ([3]; 3 hr, 37° C.) was 500.41 nM. The “Calculated Conc. for each compound in rat lysomal lysate” value ([3]; 6 hr, 37° C.) was 221.03 nM, the “Calculated Conc. for each compound in rat lysomal lysate” value ([3]; Matrix spiking (lysosomes pretreated with stopping reagent)) was 2555.29 nM and the “rate of dexamethasone release in rat lysosomal extract (in words)” value ([3]; compared with 3-4, 5-3 releasing faster than 4-3) was “more slowly released”.
